Results taken from paper PMC8199245, “Serotonin Promotes Serum Albumin Interaction with the Monomeric Amyloid β Peptide” (International Journal of Molecular Sciences, 2021).
Entries after “also recorded” stand apart in the source; their conditions may differ.

Assays:
[1] = tested on: brain Aβ deposition in AD mouse models; details: dietary; cited from earlier work
Description: (§1) An alternative, less invasive approach to the lowering of the free Aβ level in the brain is a pharmacologically guided shift in the equilibrium between HSA and Aβ towards their complex. The latter possibility was recently confirmed by arachidonic/linoleic-aci ...

[2] = tested on: HSA–monomeric Aβ; details: cited from earlier work
Description: as §1

[3] = biological target: T1, HSA–monomeric Aβ40 (recombinant human Aβ40) (Homo sapiens, UniProt P02768); parameters: method as in PMID 30685090; details: cited from earlier work
T1 sequence (P05067 672-711): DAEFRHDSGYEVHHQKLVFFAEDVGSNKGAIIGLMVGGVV
T1 sequence (P02768 25-609): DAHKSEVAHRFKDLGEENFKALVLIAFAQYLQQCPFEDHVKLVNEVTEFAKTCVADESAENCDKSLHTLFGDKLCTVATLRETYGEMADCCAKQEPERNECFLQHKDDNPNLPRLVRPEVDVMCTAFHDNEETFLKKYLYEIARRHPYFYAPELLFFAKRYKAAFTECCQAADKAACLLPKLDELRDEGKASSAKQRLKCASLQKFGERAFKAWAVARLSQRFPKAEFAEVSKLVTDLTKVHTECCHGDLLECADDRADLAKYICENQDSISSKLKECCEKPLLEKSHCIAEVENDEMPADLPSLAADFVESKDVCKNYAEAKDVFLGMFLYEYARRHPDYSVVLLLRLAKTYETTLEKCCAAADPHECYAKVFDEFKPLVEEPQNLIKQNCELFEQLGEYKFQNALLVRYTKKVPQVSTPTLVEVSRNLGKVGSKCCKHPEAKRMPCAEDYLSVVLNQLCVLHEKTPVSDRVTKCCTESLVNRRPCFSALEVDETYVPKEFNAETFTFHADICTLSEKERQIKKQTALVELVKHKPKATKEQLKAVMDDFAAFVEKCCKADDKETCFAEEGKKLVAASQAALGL

[4] = biological target: T2, HSA–monomeric Aβ42 (recombinant human Aβ42) (Homo sapiens, UniProt P02768); parameters: method as in PMID 30685090; details: cited from earlier work
T2 sequence (P05067 672-713): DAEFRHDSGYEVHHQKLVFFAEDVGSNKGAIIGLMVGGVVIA
T2 sequence (P02768 25-609): as the sequence (P02768 25-609) above

[5] = tested on: Aβ level in interstitial brain fluid; details: direct infusion into the hippocampus, mouse model of AD; cited from earlier work
Protocol: (§2) The SRO concentration in plasma is 0.28–1.7 µM [40], but in the synaptic cleft it may reach 6 mM and 55 nM after SRO diffuses into the extracellular compartment.

[6] = physiological (endogenous), cited from earlier work
Protocol: as §2

[7] = tested on: HSA; parameters: method as in PMID 17191887; details: read-out: equilibrium dissociation constant (KD) for the HSA–SRO complex; cited from earlier work
[8] = tested on: Aβ42; parameters: method as in PMID 29131485; details: 50–100 µM SRO; cited from earlier work
[9] = biological target: T2, HSA–monomeric Aβ42 (recombinant human Aβ42); test: SPR of HSA interaction with immobilized monomeric Aβ42, without/with SRO or TRP; details: SPR 25 °C; for Kd: KD (apparent, HSA–Aβ42), KD × 10^7, i.e. value × 10^−7 M; for Kd / ka (effective, HSA–Aβ42) / kd (effective, HSA–Aβ42): HSA 5–60 µM, mean ± SD; for ka (effective, HSA–Aβ42): ka × 10^−3, i.e. value × 10^3 M^−1s^−1; for kd (effective, HSA–Aβ42): kd × 10^4, i.e. value × 10^−4 s^−1
Protocol: (§3) The recombinant human Aβ40 or Aβ42 sample was immobilized on the surface of the SPR sensor chip by amine coupling, followed by removal from the surface of the non-covalently bound Aβ molecules by a 2% SDS water solution [12]. […] (5–60 µM) was used as an analyte.
(§4) Aβ40/Aβ42 was immobilized on the sensor chip’s surface by amine coupling.
(§5) Recombinant human Aβ40/Aβ42 samples were pretreated for SPR measurements mainly as described in [46]. The freeze-dried Aβ sample was dissolved in neat TFA at a concentration of 0.5–1 mg/mL. The solution was sonicated for 30 s. TFA was evaporated using Eppendorf Concentrator plus. The dried Aβ sample was dissolved in DMSO at a concentration of 2 mg/mL, and stored at −20 °C.
(§6) SPR measurements were performed at 25 °C using a Bio-Rad ProteOn™ XPR36 instrument mainly as previously described. Ligand (57 μg/mL recombinant human Aβ40/Aβ42 in 10 mM sodium acetate, pH 4.5 buffer) was immobilized on a ProteOn GLH sensor chip surface (up to 7000–9000 RUs) by amine coupling. The remaining activated amine groups on the chip surface were blocked by 1 M ethanolamine solution. The non-covalently bound Aβ40/Aβ42 molecules were washed from the chip surface with 2% SDS water solution until stabilization of the signal. […] The sensor chip surface was regenerated by passage of 10 mM EDTA pH 7.9 solution containing 2% SDS. […] The double-referenced SPR sensograms were globally fitted according to the one-site binding model using Bio-Rad ProteOn Manager™ v.3.1 software.

[10] = biological target: T1, HSA–monomeric Aβ40 (recombinant human Aβ40); test: SPR of HSA interaction with immobilized monomeric Aβ40, without/with SRO or TRP; details: SPR 25 °C; for Kd: KD (apparent, HSA–Aβ40), KD × 10^7, i.e. value × 10^−7 M; for Kd / ka (effective, HSA–Aβ40) / kd (effective, HSA–Aβ40): HSA 5–60 µM, mean ± SD; for ka (effective, HSA–Aβ40): ka × 10^−3, i.e. value × 10^3 M^−1s^−1; for kd (effective, HSA–Aβ40): kd × 10^4, i.e. value × 10^−4 s^−1
Protocol: as §3, §4, §5, §6

[11] = tested on: HSA; test: Dynamic light scattering of HSA; parameters: species or system human; details: 1 mM SRO, HSA 36 µM, 25 °C, pH 7.4
Protocol: The standard deviations are indicated.
The back-scattered light from a 4 mW He/Ne laser (632.8 nm) was collected at an angle of 173°. The acquisition time for a single autocorrelation function was 45 s. The resulting autocorrelation functions are averaged values from 20 measurements. The volume–size distributions were calculated using the following parameters: a refractive index of 1.330 and a viscosity value of 0.8882 cP.

[12] = tested on: HSA; test: Glutaraldehyde crosslinking of HSA with SDS-PAGE; parameters: species or system human; details: HSA 36 µM, 37 °C
[13] = tested on: HSA–monomeric Aβ; test: SPR of HSA interaction with monomeric Aβ (isoform not given); assay type: binding, human
[14] = 1 mM SRO, main cause of KD decrease

## CCCCC/C=C\C/C=C\CCCCCCCC(=O)O [linoleic acid]
[1]
  effect on brain Aβ deposition: reduces brain Aβ deposition
[2]
  effect on HSA affinity to Aβ: enhancement of HSA affinity to Aβ
[3]
  fold decrease in KD of HSA–monomeric Aβ40: 3 fold
[4]
  fold decrease in KD of HSA–monomeric Aβ42: 3 fold

## NCCc1c[nH]c2ccc(O)cc12 [SRO, 5-hydroxytryptamine]
[5]
  Aβ level in interstitial brain fluid: decrease in the Aβ level in interstitial brain fluid
[6]; may reach
  SRO concentration after diffusion into the extracellular compartment: ≤ 55 nM
  SRO concentration in the synaptic cleft: ≤ 6 mM
[6]
  SRO concentration in plasma: 0.28 to 1.7 µM
[7]
  Kd: 1600 nM
[8]
  inhibition of Aβ42 fibrillation: efficient inhibition of Aβ42 fibrillation; also recorded: potent inhibition of Aβ42 fibrillation
[9]; 1 mM SRO vs no ligand, pH 7.4
  factor of decrease in apparent KD / increase in affinity of HSA–Aβ42: 17 factor
[9]; [14]
  effect on dissociation of HSA–Aβ42 complex: slowdown of the dissociation process
[9]; 10 µM HSA ligand, pH 7.4
  Kd: 40 ± 20 nM
  ka (effective, HSA–Aβ42): 0.6 ± 0.4 × 10^−3, M^−1s^−1
  kd (effective, HSA–Aβ42): 0.20 ± 0.14 × 10^4, s^−1
[9]; 100 µM HSA ligand, pH 7.4
  Kd: 9 ± 4 nM
  ka (effective, HSA–Aβ42): 0.9 ± 0.2 × 10^−3, M^−1s^−1
  kd (effective, HSA–Aβ42): 0.08 ± 0.02 × 10^4, s^−1
[9]; 1 mM HSA ligand, pH 7.4
  Kd: 7 ± 1.5 nM
  ka (effective, HSA–Aβ42): 1.2 ± 0.2 × 10^−3, M^−1s^−1
  kd (effective, HSA–Aβ42): 0.086 ± 0.009 × 10^4, s^−1
[10]; 1 mM SRO vs no ligand, pH 7.4
  factor of decrease in apparent KD / increase in affinity of HSA–Aβ40: 7 factor
[10]; [14]
  effect on dissociation of HSA–Aβ40 complex: slowdown of the dissociation process
[10]; 10 µM HSA ligand, pH 7.4
  Kd: 40 ± 20 nM
  ka (effective, HSA–Aβ40): 0.7 ± 0.2 × 10^−3, M^−1s^−1
  kd (effective, HSA–Aβ40): 0.26 ± 0.03 × 10^4, s^−1
[10]; 100 µM HSA ligand, pH 7.4
  Kd: 15 ± 13 nM
  ka (effective, HSA–Aβ40): 1.5 ± 1.2 × 10^−3, M^−1s^−1
  kd (effective, HSA–Aβ40): 0.19 ± 0.12 × 10^4, s^−1
[10]; 1 mM HSA ligand, pH 7.4
  Kd: 9 ± 5 nM
  ka (effective, HSA–Aβ40): 1.0 ± 0.5 × 10^−3, M^−1s^−1
  kd (effective, HSA–Aβ40): 0.09 ± 0.05 × 10^4, s^−1
[11]
  accumulation of multimeric HSA forms (DLS), compared with TRP: more prominent accumulation of its multimeric forms
[12]; 1 mM SRO, 0.02% glutaraldehyde, 1 h, pH 7.4
  fold increase in content of HSA high-molecular-weight forms (at the expense of the monomer): approximately 2 fold
[12]; 1 mM ligand, glutaraldehyde crosslinking, overall statements also rest on DLS
  effect on quaternary structure of HSA: more distinct changes in the quaternary structure of HSA, relative to the TRP-induced effects; also recorded: more marked changes in the quaternary structure of HSA
[13]; 10 µM SRO, SPR 25 °C
  effect on HSA's affinity to Aβ: absence of a marked influence
[13]; general statement, SPR
  effect on HSA's affinity to monomeric Aβ / activation of HSA–Aβ interaction: the most potent activator of HSA–Aβ interaction reported to date
[13]; up to, vs no ligand
  fold decrease in KD of HSA–Aβ: ≤ 17 fold
